This passage reports IC50 results from ChEMBL document CHEMBL2390880, “Influence of 4- or 5-substituents on the pyrrolidine ring of 5-[1-(2-methoxymethylpyrrolidinyl)sulfonyl]isatin derivatives on their inhibitory activities towards caspases-3 and -7” (Eur J Med Chem, 2013).

Where only a bound is given, the exact number is not on record here.

One test concerns the target T1, Caspase-7 (Homo sapiens, UniProt P55210).
T1 sequence (P55210 whole entry): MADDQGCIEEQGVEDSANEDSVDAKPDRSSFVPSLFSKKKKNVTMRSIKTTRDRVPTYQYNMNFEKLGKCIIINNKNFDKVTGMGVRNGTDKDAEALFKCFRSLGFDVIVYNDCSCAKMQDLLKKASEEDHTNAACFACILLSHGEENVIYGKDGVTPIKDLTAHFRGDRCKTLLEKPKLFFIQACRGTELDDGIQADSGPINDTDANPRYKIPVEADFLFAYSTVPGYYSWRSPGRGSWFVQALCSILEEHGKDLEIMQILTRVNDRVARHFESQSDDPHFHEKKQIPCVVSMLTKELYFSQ
Nature of the test: Inhibition of human recombinant caspase-7 using Ac-DEVD-AMC as substrate assessed as accumulation of AMC preincubated for 10 mins followed by substrate addition measured after 10 mins by fluorescence assay.

The next test deals with T2, Caspase-3 (Homo sapiens, UniProt P42574).
T2 sequence (P42574 whole entry): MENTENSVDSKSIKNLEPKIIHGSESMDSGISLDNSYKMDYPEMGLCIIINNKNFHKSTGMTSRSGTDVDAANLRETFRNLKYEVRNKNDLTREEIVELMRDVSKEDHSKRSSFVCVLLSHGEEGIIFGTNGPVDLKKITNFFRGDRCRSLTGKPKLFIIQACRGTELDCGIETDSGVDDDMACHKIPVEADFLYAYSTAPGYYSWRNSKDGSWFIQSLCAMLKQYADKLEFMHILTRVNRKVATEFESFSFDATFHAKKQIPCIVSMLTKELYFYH
Nature of the test: Inhibition of human recombinant caspase-3 using Ac-DEVD-AMC as substrate assessed as accumulation of AMC preincubated for 10 mins followed by substrate addition measured after 10 mins by fluorescence assay.

In the case of `COC[C@H]1CC[C@@H](COC)N1S(=O)(=O)c1ccc2c(c1)C(=O)C(=O)N2`, the IC50 on Caspase-7 and at Caspase-3 was greater than 500 µM in each case.
For the compound `CCCCN1C(=O)C(=O)c2cc(S(=O)(=O)N3C[C@@H](OCCOCCOCCOCCO)C[C@H]3COC)ccc21`, the IC50 at Caspase-7 and at Caspase-3 was greater than 500 µM each time.
Take `COC[C@@H]1CC[C@@H](COC)N1S(=O)(=O)c1ccc2c(c1)C(=O)C(=O)N2`: the IC50 at Caspase-7 and at Caspase-3 was greater than 500 µM each time.
As for `COC[C@@H]1C[C@H](OCCOCCOCCOCCO)CN1S(=O)(=O)c1ccc2c(c1)C(=O)C(=O)N2`, the IC50 at Caspase-7 and on Caspase-3 was greater than 500 µM throughout.
Regarding `COC[C@@H]1C[C@@H](OCCOCCOCCOCCO)CN1S(=O)(=O)c1ccc2c(c1)C(=O)C(=O)N2`, the IC50 at Caspase-7 and at Caspase-3 was greater than 500 µM in each case.
Turning to `COC[C@@H]1C[C@H](C(F)(F)F)CN1S(=O)(=O)c1ccc2c(c1)C(=O)C(=O)N2`, the concentration for half-maximal inhibition (IC50) at Caspase-3 was found to be 101 µM.
For `COC[C@@H]1C[C@@H](OC)CN1S(=O)(=O)c1ccc2c(c1)C(=O)C(=O)N2`, the IC50 at Caspase-7 and at Caspase-3 was greater than 500 µM throughout.
In the case of `COC[C@@H]1C[C@H](OC)CN1S(=O)(=O)c1ccc2c(c1)C(=O)C(=O)N2`, the IC50 on Caspase-7 and at Caspase-3 was greater than 500 µM each time.
With `COC[C@@H]1C[C@@H](C(F)(F)F)CN1S(=O)(=O)c1ccc2c(c1)C(=O)C(=O)N2`, the IC50 at Caspase-7 and at Caspase-3 was greater than 500 µM throughout.

One may read the IC50 as the point on the concentration scale where inhibition reaches its midpoint.
